Like-named read-outs stand apart in the source and are kept apart here.
How the values were obtained:
HT-29 cells = assay: HT-29 cell proliferation assay (Crystal Violet); format: cell-based, human; settings: six days of treatment
Method: The HT-29 cells were seeded in 24-well plates (35×10^3 cells/well) and were incubated for 24 hours. Then the cells were treated with different concentrations of ChoK inhibitors in the usual culture medium. Three days later, the wells were aspirated and both fresh medium and more amount of drug were added, and the cells were maintained for three more days. The quantification of the remaining cells in each well was carried out by means of the Crystal Violet method [Gillies, R. J., Didier, N., Denton, M. Anal. Biochem. 159, 109-113 (1986)], with some modifications [Hernández-Alcoceba, R., Saniger, L., Campos, J., Núñez, M. C., Khaless, F., Gallo, M. Á., Espinosa, A., Lacal, J. C. Oncogene, 15, 2289-2301 (1997)]. Briefly, the cells were washed with TD buffer and fixed with 1% glutaraldehyde for 15 minutes. After washing again with TD, the cell nuclei were coloured with 0.1% Crystal Violet for at least 30 minutes and washed three times with distilled water. The adsorbed colouring was resuspended in 10% acetic acid and the absorbance at 595 nm was determined in a spectrometer. […] This value determined by iterative curve adjustment. Two values are determined for each point of the curve, the experiment was repeated two or three times and the mean values were estimated. In the few cases in which the two values differed more than 50%, a third experiment was carried out to determine the real value. The IC50 value as a potency measurement is used to relate the biological activity of the compounds with their chemical structure.

Human ChoK = target: T1, Human ChoK (Homo sapiens, UniProt P35790); assay: Ex vivo assay of the activity of human ChoK (recombinant choline kinase expressed in E. coli); format: biochemical
T1 construct: made in house; host or cells: E. coli
T1 sequence (P35790 whole entry): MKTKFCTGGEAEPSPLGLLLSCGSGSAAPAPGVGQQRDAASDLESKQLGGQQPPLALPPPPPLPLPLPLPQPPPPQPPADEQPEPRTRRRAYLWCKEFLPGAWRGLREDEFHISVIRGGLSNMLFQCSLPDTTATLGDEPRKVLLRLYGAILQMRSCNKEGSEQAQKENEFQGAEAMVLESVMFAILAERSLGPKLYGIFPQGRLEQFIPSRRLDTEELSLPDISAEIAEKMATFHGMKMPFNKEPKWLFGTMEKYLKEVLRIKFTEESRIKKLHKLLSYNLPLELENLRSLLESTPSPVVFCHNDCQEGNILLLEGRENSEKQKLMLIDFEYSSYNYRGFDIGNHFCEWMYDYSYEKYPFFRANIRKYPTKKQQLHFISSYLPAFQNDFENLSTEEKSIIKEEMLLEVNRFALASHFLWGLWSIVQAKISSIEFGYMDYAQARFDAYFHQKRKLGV
Method: Recombinant choline kinase expressed in E. coli in the buffer assay (100 mM Tris-HCl pH 8.0, 100 mM MgCl2, 10 mM ATP and 200 μM of choline in the presence of methyl[^14C]-choline chloride (50-60 μCi/mmol)) was used for the ex vivo assays. […] The samples were washed with diethyl ether saturated with water and were lyophilized. The hydrophilic choline derivatives were resolved in thin layer chromatography plates according to a described process [Ramírez, A., Penalva, V., Lucas, L., Lacal, J. C.

[1] = recombinant human ChoK, 37° C., 30 minutes

Molecule: CN(c1ccc(Cl)cc1)c1cc[n+](Cc2cccc(-c3cccc(C[n+]4ccc(N(C)c5ccc(Cl)cc5)c5ccccc54)c3)c2)c2ccccc12.[Br-].[Br-] [Compound 5, 1,1′-(biphenyl-3,3′-diylmethylene)bis[4-(4-chloro-N-methylanilino)quinolinium]dibromide]
- IC50 (HT-29 cells): 1.6 µM

Molecule: Clc1ccc2c(N3CCCC3)cc[n+](Cc3cccc(-c4cccc(C[n+]5ccc(N6CCCC6)c6ccc(Cl)cc65)c4)c3)c2c1 [EC4, reference compound]
- IC50 (Human ChoK; [1]): 1.2 µM
- IC50 (HT-29 cells; Homo sapiens, 144 h): 0.4 µM

Molecule: Clc1ccc2c(N3CCCC3)cc[n+](Cc3ccc(CCc4ccc(C[n+]5ccc(N6CCCC6)c6ccc(Cl)cc65)cc4)cc3)c2c1 [EC5, reference compound]
- IC50 (Human ChoK; [1]): 1 µM
- IC50 (HT-29 cells; Homo sapiens, 144 h): 0.2 µM

Molecule: CN(c1ccccc1)c1cc[n+](Cc2cccc(-c3cccc(C[n+]4ccc(N(C)c5ccccc5)cc4)c3)c2)cc1.[Br-].[Br-] [Compound 2, 1,1′-(biphenyl-3,3′-diylmethylene)bis[4-(N-methylanilino)pyridinium]dibromide]
- IC50 (Human ChoK; [1]): 0.42 µM
- IC50 (HT-29 cells): 2.2 µM

Molecule: CN(c1ccc(Cl)cc1)c1cc[n+](Cc2ccc(-c3ccc(C[n+]4ccc(N(C)c5ccc(Cl)cc5)c5ccc(Cl)cc54)cc3)cc2)c2cc(Cl)ccc12 [Compound 8, 1,1′-(biphenyl-4,4′-diylmethylene)bis[4-(4-chloro-N-methylanilino)-7-chloroquinolinium]dibromide]
- IC50 (Human ChoK; [1]): 11.4 µM
- IC50 (HT-29 cells; Homo sapiens, 144 h): 1.2 µM

Molecule: CN(c1ccc(Cl)cc1)c1cc[n+](Cc2ccc(CCc3ccc(C[n+]4ccc(N(C)c5ccc(Cl)cc5)c5ccc(Cl)cc54)cc3)cc2)c2cc(Cl)ccc12 [Compound 10, 1,1′-[ethylenebis(benzene-1,4-diylmethylene)]bis[4-(4-chloro-N-methylanilino)-7-chloroquinolinium]dibromide]
- IC50 (Human ChoK; [1]): 5.7 µM
- IC50 (HT-29 cells; Homo sapiens, 144 h): 0.8 µM

Molecule: 1,1′-(biphenyl-3,3′-diylmethylene)bis[4-(3,5-dichloro-N-methylanilino)pyridinium]dibromide [Compound 4]
- IC50 (HT-29 cells): 1.8 µM

Molecule: c1cc(C[n+]2ccc(N3CCCCC3)cc2)cc(-c2cccc(C[n+]3ccc(N4CCCCC4)cc3)c2)c1 [EC2, reference compound]
- IC50 (Human ChoK): 1.9 µM
- IC50 (HT-29 cells; Homo sapiens, 144 h): 1.6 µM

Molecule: CN(C)c1cc[n+](Cc2cccc(-c3cccc(C[n+]4ccc(N(C)C)c5ccc(Cl)cc54)c3)c2)c2cc(Cl)ccc12 [EC3, reference compound]
- IC50 (Human ChoK; [1]): 9.6 µM
- IC50 (HT-29 cells; Homo sapiens, 144 h): 0.7 µM

Molecule: 1,1′-(benzene-1,3-diylmethylene)bis[4-(4-chloro-N-methylanilino)pyridinium]dibromide [Compound 1]
- IC50 (Human ChoK; [1]): 5.7 µM
- IC50 (HT-29 cells): 3.3 µM

Molecule: c1cc(C[n+]2ccc(N3CCCC3)cc2)cc(-c2cccc(C[n+]3ccc(N4CCCC4)cc3)c2)c1 [EC1, reference compound]
- IC50 (Human ChoK; [1]): 5.8 µM

Molecule: CN(c1ccc(Cl)cc1)c1cc[n+](Cc2cccc(-c3cccc(C[n+]4ccc(N(C)c5ccc(Cl)cc5)c5ccc(Cl)cc54)c3)c2)c2cc(Cl)ccc12 [Compound 6, 1,1′-(biphenyl-3,3′-diylmethylene)bis[4-(4-chloro-N-methylanilino)-7-chloroquinolinium]dibromide]
- IC50 (Human ChoK; [1]): 5.7 µM
- IC50 (HT-29 cells; Homo sapiens, 144 h): 1.9 µM

Molecule: CN(c1ccc(Cl)cc1)c1cc[n+](Cc2ccc(CCc3ccc(C[n+]4ccc(N(C)c5ccc(Cl)cc5)c5ccccc54)cc3)cc2)c2ccccc12 [Compound 9, 1,1′-[ethylenebis(benzene-1,4-diylmethylene)]bis[4-(4-chloro-N-methylanilino)quinolinium]dibromide]
- IC50 (Human ChoK; [1]): 4.8 µM
- IC50 (HT-29 cells; Homo sapiens, 144 h): 0.7 µM

Molecule: CN(C)c1cc[n+](Cc2ccc(CCCc3ccc(C[n+]4ccc(N(C)C)cc4)cc3)cc2)cc1 [EC6, reference compound]
- IC50 (Human ChoK; [1]): 22 µM
- IC50 (HT-29 cells; Homo sapiens, 144 h): 2.5 µM
